From patent US10519159B2, “Antiviral aliphatic ester prodrugs of tenofovir” (Merck Sharp & Dohme Corp., priority 2016, dated 2019)
Like-named read-outs stand apart in the source and are kept apart here.

Assays:
HIV-1 (H9/IIIB strain) = experiment: Multiple round HIV-1 infection assay (Viking assay) in MT4-GFP cells; format: cell-based
Protocol: Assessing Antiviral Potency in a Multiple Round HIV-1 Infection Assay (Viking Assay)
The antiviral activity of the tenofovir prodrugs of the Examples herein was assessed in an assay that measures the rate of replication of HIV in cell culture, termed the Viking assay (Viral KINetics in Green cells) and performed as follows. HIV-1 replication was monitored using MT4-gag-GFP clone D3 (hereafter designated MT4-GFP), which are MT-4 cells modified to harbor a GFP reporter gene, the expression of which is dependent on the HIV-1 expressed proteins tat and rev. Productive infection of an MT4-GFP cell with HIV-1 results in GFP expression approximately 24 h post-infection. MT4-GFP cells were maintained at 37° C./5% CO2/90% relative humidity in RPMI 1640 supplemented with 10% fetal bovine serum, 100 U/ml penicillin/streptomycin, and 400 μg/ml G418 to maintain the reporter gene. For infections, MT4-GFP cells were placed in the same medium lacking G418 and infected overnight with HIV-1 (H9/IIIB strain) virus at an approximate multiplicity of infection of 0.01 in the same incubation conditions. Cells were then washed and re-suspended in either RPMI 1640 supplemented with 10% or 50% normal human serum (NHS) at 1.6×10^5 cells/mL (10% NHS or 50% NHS, respectively). Compound plates were prepared by dispensing compounds dissolved in DMSO into wells of 384 well poly-D-lysine-coated plates (0.2 μl/well) using an ECHO acoustic dispenser. Each compound was tested in a 10-point serial 3-fold dilution (typical final concentrations: 8.4 μM-0.42 nM). Controls included no inhibitor (DMSO only) and a combination of three antiviral agents (efavirenz, indinavir, an in-house integrase strand transfer inhibitor at final concentrations of 4 μM each). Cells were added (50 μL/well) to compound plates and the infected cells were maintained at 37° C./5% CO2/90% relative humidity.
Infected cells were quantified at two time points, ˜48 h and ˜72 h post-infection, by counting the number of green cells in each well using an Acumen eX3 scanner. The increase in the number of green cells over ˜24 h period gives the reproductive ratio, R0, which is typically 5-15 and has been shown experimentally to be in logarithmic phase (data not shown). Inhibition of R0 is calculated for each well, and IC50s determined by non-linear 4-parameter curve fitting.

[1] = Prodrug stability assay in bio-relevant media (FaSSIF with pancreatin), GI tract stability; format: in vitro ADME
Protocol: Prodrug Stability Assay in Bio-Relevant Media
The following assay was employed to evaluate the stability of the prodrugs in simulated gastrointestinal tract conditions. Preparation of fasted state simulated intestinal fluid (FaSSIF) using Phares SIF Powder was carried out according to protocols from Phare Drug Delivery AG (Baselland, Switzerland). For sample preparation, 10 μL stock solutions (10 mM) of prodrug substance in DMSO was added to 990 μL of 0.5 mg/mL Pancreatin solution (Fisher CAS #8049-47-6) in FaSSIF. Two samples were prepared for each compound. If the sample was a clear solution, it was directly analyzed by HPLC. If the sample was not clear, the sample was […], maintained at 37° C. and observed 5 h later. If the sample was clear, HPLC analysis was directly performed. If the sample was still not clear, the sample was diluted with 100% ACN and assayed by HPLC. All the samples were vortexed for 3 min and observed before injection. For the diluted samples, the area is multiplied by a dilution factor when the data is analyzed. The analysis was carried out with an Agilent 1100 series HPLC with autosampler. The column was a Poroshell 120 EC-C18, 4.6×50 mm, 2.7 μm. The flow rate was 1.8 mL/min, and the injection volume was 5 or 10 μL. UV detection was in the range 210-400 nm. The mobile phase consisted of solvent A (water plus 10 mM tetrabutylammonium bromide) and solvent B (acetonitrile) with a gradient of: 90% solvent A at 0 min, changing to 95% solvent B over 6 min, maintaining for 1.5 min, then reverting to 90% solvent A over 1.6 min. The HPLC peak area of the prodrug at 5 h was divided by the HPLC peak area of the prodrug at 0 h, to generate the % claimed parent ratio, which is summarized in Table 1 for gastrointestinal (GI) Tract stability.

[2] = Human immunodeficiency virus 1, IIIB, Table 2, L-Ala comparison compounds, MT4-GFP cells, HIV-1 H9/IIIB, 10% normal human serum, read-out: Viking, IC50 (10% NHS)
[3] = Human immunodeficiency virus 1, IIIB, Table 2, L-Ala comparison compounds, MT4-GFP cells, HIV-1 H9/IIIB, 50% normal human serum, read-out: Viking, IC50 (50% NHS)
[4] = Table 2, L-Ala comparison compounds, % parent at 5 h vs 0 h, pancreatin in FaSSIF
[5] = Table 1, MT4-GFP cells infected with HIV-1 H9/IIIB, 10% normal human serum, read-out: Viking, IC50 (10% NHS)
[6] = Table 1, MT4-GFP cells infected with HIV-1 H9/IIIB, 50% normal human serum, read-out: Viking, IC50 (50% NHS)
[7] = Table 1, % parent: HPLC peak area of prodrug at 5 h / 0 h, 0.5 mg/mL pancreatin in FaSSIF, 37° C.
[8] = Human immunodeficiency virus 1, IIIB, Table 1, MT4-GFP cells infected with HIV-1 H9/IIIB, 10% normal human serum, read-out: Viking, IC50 (10% NHS)
[9] = Human immunodeficiency virus 1, IIIB, Table 1, MT4-GFP cells infected with HIV-1 H9/IIIB, 50% normal human serum, read-out: Viking, IC50 (50% NHS)

| SMILES | IC50 (HIV-1 (H9/IIIB strain); [5]) | IC50 (HIV-1 (H9/IIIB strain); [6]) | also measured |
| --- | --- | --- | --- |
| CCCOC(=O)[C@H](C)NP(=O)(CO[C@H](C)Cn1cnc2c(N)ncnc21)OCCC(=O)OC(C)C (single isomer, unassigned) [Compound 15A, reference compound] |  |  | IC50 (HIV-1 (H9/IIIB strain); [2]): 0.101 µM; IC50 (HIV-1 (H9/IIIB strain); [3]): 1.22 µM; GI Tract stability [1, 4]: 60.1% |
| CCCOC(=O)[C@H](C)NP(=O)(CO[C@H](C)Cn1cnc2c(N)ncnc21)OCC[C@H](C)C(=O)OC(C)C (single isomer, unassigned) [Compound 16A, reference compound] |  |  | IC50 (HIV-1 (H9/IIIB strain); [2]): 0.213 µM; IC50 (HIV-1 (H9/IIIB strain); [3]): 1.83 µM; GI Tract stability [1, 4]: 51.3% |
| CCCOC(=O)[C@H](C)NP(=O)(CO[C@H](C)Cn1cnc2c(N)ncnc21)OCc1ccc(F)cc1C(=O)OC(C)C (single isomer, unassigned) [Compound 17A, reference compound] |  |  | IC50 (HIV-1 (H9/IIIB strain); [2]): 0.035 µM; IC50 (HIV-1 (H9/IIIB strain); [3]): 2.23 µM; GI Tract stability [1, 4]: 20.3% |
| CCCOC(=O)C(C)(C)NP(=O)(CO[C@H](C)Cn1cnc2c(N)ncnc21)OCCC(=O)OC(C)C (single isomer, unassigned) [Example 1A] | 0.0232 µM | 0.103 µM |  |
| CCCOC(=O)C(C)(C)NP(=O)(CO[C@H](C)Cn1cnc2c(N)ncnc21)OCCC(=O)OC(C)C (single isomer, unassigned) [Example 1B] | 0.00509 µM | 0.0138 µM | GI Tract stability [1, 7]: 99.35% |
| CC(C)OC(=O)CCOP(=O)(CO[C@H](C)Cn1cnc2c(N)ncnc21)NC(C)(C)C(=O)OC(C)C (single isomer, unassigned) [Example 2A] | 0.0225 µM | 0.0698 µM | GI Tract stability [1, 7]: 100.30% |
| CC(C)OC(=O)CCOP(=O)(CO[C@H](C)Cn1cnc2c(N)ncnc21)NC(C)(C)C(=O)OC(C)C (single isomer, unassigned) [Example 2B] | 0.601 µM | 0.622 µM |  |
| CC(C)OC(=O)C1(COP(=O)(CO[C@H](C)Cn2cnc3c(N)ncnc32)NC(C)(C)C(=O)OC(C)C)CC1 (single isomer, unassigned) [Example 3A] | 0.0887 µM | 0.521 µM |  |
| CC(C)OC(=O)C1(COP(=O)(CO[C@H](C)Cn2cnc3c(N)ncnc32)NC(C)(C)C(=O)OC(C)C)CC1 (single isomer, unassigned) [Example 3B] | 0.0168 µM | 0.0709 µM |  |
| CCOC(=O)C1(CCOP(=O)(CO[C@H](C)Cn2cnc3c(N)ncnc32)NC(C)(C)C(=O)OC(C)C)CC1 (single isomer, unassigned) [Example 4A] | 0.252 µM | 0.756 µM |  |
| CCOC(=O)C1(CCOP(=O)(CO[C@H](C)Cn2cnc3c(N)ncnc32)NC(C)(C)C(=O)OC(C)C)CC1 (single isomer, unassigned) [Example 4B] | 0.00784 µM | 0.0227 µM | GI Tract stability [1, 7]: 99.72% |
| CC(C)OC(=O)[C@@H](C)CCOP(=O)(CO[C@H](C)Cn1cnc2c(N)ncnc21)NC(C)(C)C(=O)OC(C)C (single isomer, unassigned) [Example 5A] | 0.00752 µM | 0.0336 µM |  |
| CC(C)OC(=O)[C@@H](C)CCOP(=O)(CO[C@H](C)Cn1cnc2c(N)ncnc21)NC(C)(C)C(=O)OC(C)C (single isomer, unassigned) [Example 5B] | 0.54 µM | 2.22 µM |  |
| CCCOC(=O)C(C)(C)NP(=O)(CO[C@H](C)Cn1cnc2c(N)ncnc21)OCC[C@H](C)C(=O)OC(C)C (single isomer, unassigned) [Example 6A] | 0.00554 µM | 0.0155 µM |  |
| CCCOC(=O)C(C)(C)NP(=O)(CO[C@H](C)Cn1cnc2c(N)ncnc21)OCC[C@H](C)C(=O)OC(C)C (single isomer, unassigned) [Example 6B] | 0.0731 µM | 0.246 µM |  |
| CCCOC(=O)C(C)(C)N[P@@](=O)(CO[C@H](C)Cn1cnc2c(N)ncnc21)OCc1ccc(F)cc1C(=O)OC(C)C (single isomer, unassigned) [Example 7A] |  |  | IC50 (HIV-1 (H9/IIIB strain); [8]): 0.107 µM; IC50 (HIV-1 (H9/IIIB strain); [9]): 0.654 µM |
| CCCOC(=O)C(C)(C)N[P@](=O)(CO[C@H](C)Cn1cnc2c(N)ncnc21)OCc1ccc(F)cc1C(=O)OC(C)C (single isomer, unassigned) [Example 7B] |  |  | IC50 (HIV-1 (H9/IIIB strain); [8]): 0.00108 µM; IC50 (HIV-1 (H9/IIIB strain); [9]): 0.00555 µM; GI Tract stability [1, 7]: 95.0% |
| CC(C)OC(=O)C(C)(C)COP(=O)(CO[C@H](C)Cn1cnc2c(N)ncnc21)NC(C)(C)C(=O)OC(C)C (single isomer, unassigned) [Example 9A] | 0.173 µM | 0.562 µM |  |
| CC(C)OC(=O)C[C@H](C)OP(=O)(CO[C@H](C)Cn1cnc2c(N)ncnc21)NC(C)(C)C(=O)OC(C)C (single isomer, unassigned) [Example 10B] | 0.284 µM | 1.07 µM |  |
| CCCOC(=O)C(C)(C)NP(=O)(CO[C@H](C)Cn1cnc2c(N)ncnc21)OCCc1cccc(C(=O)OC(C)C)c1 (single isomer, unassigned) [Example 11B] | 0.0458 µM | 0.302 µM |  |
| CCCSC(=O)C(C)(C)NP(=O)(CO[C@H](C)Cn1cnc2c(N)ncnc21)OCCC(=O)OC(C)C (single isomer, unassigned) [Example 13B] | 0.0996 µM | 0.248 µM |  |
| CCCOC(=O)C(C)(C)NP(=O)(CO[C@H](C)Cn1cnc2c(N)ncnc21)OCc1cccc(C(=O)OC(C)C)c1 (single isomer, unassigned) [Example 14B] | 0.0167 µM | 0.114 µM |  |
| CCCOC(=O)[C@H](C)NP(=O)(CO[C@H](C)Cn1cnc2c(N)ncnc21)OCCC(=O)OC(C)C (stereo partly drawn) [Compound 15B, reference compound] |  |  | IC50 (HIV-1 (H9/IIIB strain); [2]): 0.34 µM |
| CCCOC(=O)[C@H](C)NP(=O)(CO[C@H](C)Cn1cnc2c(N)ncnc21)OCC[C@H](C)C(=O)OC(C)C (stereo partly drawn) [Compound 16B, reference compound] |  |  | IC50 (HIV-1 (H9/IIIB strain); [2]): 0.73 µM |
| CCCOC(=O)[C@H](C)NP(=O)(CO[C@H](C)Cn1cnc2c(N)ncnc21)OCc1ccc(F)cc1C(=O)OC(C)C (stereo partly drawn) [Compound 17B, reference compound] |  |  | IC50 (HIV-1 (H9/IIIB strain); [2]): 0.57 µM |
